Where two headings read alike, the source gives them in different places.
Key:
Format in all cases: cell-based
[1] = tested on: BRCA2 mutant ovarian tumor cell line PEO1; test: Cell sensitivity analysis on PEO1 cell line, single and combination treatment, Isobole plot
Method: Cell sensitivity analysis was performed to evaluate the synergistic effect of LP-184 and Olaparib on PEO1 cell line, which is an established BRCA2 mutant ovarian tumor cell line. Cells were seeded onto 96-well plate and were continuously exposed to drug treatment for 8.5 days. IC50 data were obtained from Olaparib, LP-184 single treatment and combination treatment.
Cell sensitivity analysis was performed to evaluate the synergistic effect of LP-184 and Talazoparib on PEO1 cell line. Experiments were done as described above. […] Furthermore, the synergistic effect of Talazoparib and LP-184 co-treatment was analyzed by using an Isobole plot (FIG. 4D).

OVCAR3 (Ovarian) = test: Bliss synergy score (MacSynergy II), LP-100 and PARP inhibitor, OVCAR3; details: combination with LP-100, score >10 indicates synergy
Method: (§1) This program allows the three-dimensional examination of drug interactions of all data points generated from the checkerboard combination of two inhibitors with Bliss-Independence model (not shown). Confidence bounds are determined from replicate data. […] The volumes of synergy or antagonism can be determined and graphically depicted in three dimensions and represent the relative quantity of synergism or antagonism per change in the two drug concentrations. Synergy and antagonism volumes are based on the Bliss independence model, which assumes that both compounds act independently on different targets. A set of predicted fractional responses faAB under the Bliss independence model is calculated as […] faB with faA and faB representing the fraction of possible responses, e.g. percent (%) inhibition, of compounds A and B at amounts dA and dB, respectively, and describes the percent inhibition of a combination of compounds A and B at amount (dA+dB).

22RV1 (Prostate) = test: Bliss synergy score (MacSynergy II), LP-100 and PARP inhibitor, 22RV1; details: combination with LP-100, score >10 indicates synergy
Method: as §1

[2] = Homo sapiens, PEO1, 204 h, PEO1, 8.5 days, Olaparib and LP-184 together, FIG. 3C, read-out: IC50 of Olaparib and LP-184 co-treatment (concentration of each drug giving 50% cell growth inhibition together)
[3] = Homo sapiens, PEO1, PEO1, Example 4, FIGS. 4A, 4B, read-out: IC50 single treatment
[4] = Homo sapiens, PEO1, PEO1, Talazoparib and LP-184 together, FIG. 4C, read-out: IC50 of Talazoparib and LP-184 co-treatment (concentration of each drug giving 50% cell growth inhibition together)
[5] = PEO1, Olaparib and LP-184 co-treatment, Example 3
[6] = PEO1, Talazoparib and LP-184 co-treatment, Example 4

| IC50 [1, 2] [nM] | IC50 [1, 3] [nM] | IC50 [1, 4] [nM] | Compound | fold less in co-treatment compared to single drug treatment [1, 5] [fold] | fold less in co-treatment compared to single drug treatment [1, 6] [fold] | Bliss Synergy Score between LP-100 and PARP inhibitor (OVCAR3 (Ovarian)) | also measured |
| --- | --- | --- | --- | --- | --- | --- | --- |
| 13.9 | 87.4 | 7.2 | CC1=C(CN(O)C(N)=O)C2=C(C)C3(CC3)[C@@](C)(O)C(=O)C2=C1 [LP-184, (−)-hydroxyureamethyl acylfulvene] | 7.77 | 12.14 | – | IC50 ([1]; Homo sapiens, PEO1, 204 h, PEO1, Example 4, FIGS. 4A, 4B, read-out: IC50 single treatment): 87.4 nM; IC50 ([1]; Homo sapiens, PEO1, 204 h, PEO1, continuous exposure 8.5 days, Example 3, FIGS. 3A, 3B, read-out: IC50 single treatment): 108 nM |
| – | – | – | NC(=O)c1cccc2cn(-c3ccc([C@@H]4CCCNC4)cc3)nc12 [Niraparib] | – | – | 10.34 | – |
| 279 | – | 3.6 | O=C(c1cc(Cc2n[nH]c(=O)c3ccccc23)ccc1F)N1CCN(C(=O)C2CC2)CC1 [Olaparib, 4-[(3-[(4-cyclopropylcarbonyl)piperazin-4-yl]carbonyl)-4-fluorophenyl]met-hyl(2H)-phthalazin-1-one] | 4.48 | – | 12.19 | IC50 ([1]; PEO1, continuous exposure 8.5 days, Example 3, FIGS. 3A, 3B, read-out: IC50 single treatment): 1250 nM |
| – | – | – | CNCc1ccc(-c2[nH]c3cc(F)cc4c3c2CCNC4=O)cc1 [Rucaparib, 8-Fluoro-2-{4-[(methylamino)methyl]phenyl}-1,3,4,5-tetrahydro-6H-azepino[-5,4,3-cd]indol-6-one] | – | – | 14.11 | Bliss Synergy Score between LP-100 and PARP inhibitor (22RV1 (Prostate)): 18.57 |
| – | 13.1 | – | Cn1ncnc1[C@H]1c2n[nH]c(=O)c3cc(F)cc(c23)N[C@@H]1c1ccc(F)cc1 [Talazoparib, (8S,9R)-5-fluoro-8-(4-fluorophenyl)-9-(1-methyl-1H-1,2,4-triazol-5-yl)-8,-9-dihydro-2H-pyrido[4,3,2de]phthalazin-3 (7H)-one] | – | 3.64 | – | – |
